Test results as given in patent US10196417B2, “Baicalin magnesium compound and its preparation method and application” (CHENGDE MEDICAL UNIVERSITY, priority 2016, dated 2019).
In brackets after ≈: the same amount, converted by molar mass. Marks after values point to notes of the source that are not given here.

How the values were obtained:
[1] = Water solubility at 37° C. (equilibrium solubility method); format: physicochemical; details: for solubility: 37 °C, thermodynamic from solid
Method: The solubility of the baicalin and the solubility of the baicalin magnesium in water at 37° C. were measured by a conventional solubility measurement method.

[2] = tested on: mice with acute liver injury induced by D-galactose; experiment: Protection against liver injury (D-galactose-induced acute liver injury); format: in vivo; details: intragastric, 10 mg/kg baicalin or equivalent, 5 days, D-galactose 0.5 g/kg i.p. on day 4
Method: 40 healthy mice were randomly divided into 4 groups, a normal group, a model group, a baicalin group and a baicalin magnesium group. Mice in the baicalin group were administrated with baicalin at a dose of 10 mg/kg, and mice in the baicalin magnesium group were administrated with baicalin magnesium at a dose equivalent to 10 mg/kg of baicalin. Mice in the normal group and the model group were intragastrically administrated with the same volume of normal saline for 5 days. On the fourth day, mice in the model group and the administration groups were intraperitoneally injected with 0.5 g/kg of D-galactose, and mice in the normal group were intraperitoneally injected with the same volume of normal saline. The activities of ALT, AST, SOD and GSH-Px in the serum and the content of MDA were detected. Variance analysis was performed by SPSS-19.0 statistical software.

[3] = tested on: xylene-induced ear swelling in mice; experiment: Anti-inflammatory activity: xylene-induced ear swelling; format: in vivo; details: n = 8
Method: 144 healthy mice were randomly divided into 3 groups, a baicalin group, a baicalin magnesium group and a control group. Each group was divided into six subgroups each having 8 mice according to time points (1 h, 3 h, 5 h, 7 h, 11 h and 15 h). Mice in the baicalin group were orally administrated (ig administration) at a dose of 100 mg·kg-1; mice in the baicalin magnesium group were orally administrated (ig administration) at a dose equivalent to 100 mg·kg-1 of baicalin; and mice in the control group were administrated with the same volume of normal saline. At 40 minutes before each time point, 100 μl of xylene was dropped in left ears of the mice in each group; when at a time point, the animals were sacrificed. Auricles of both ears of the mice were obtained with a puncher, and the difference in weight (swelling degree) between the left ear and the right ear was used as an indication of the anti-inflammatory effect of the drug.

[4] = tested on: streptozotocin-induced diabetes rats (high-fat diet); experiment: Antidiabetic effect: blood glucose in streptozotocin-induced diabetes; format: in vivo, SD male rats; details: 80 mg/kg baicalin or equivalent intragastric daily
Method: Healthy SD male rats aged 6 to 8 weeks were randomly divided into 4 groups, a high-fat diet control group, a diabetes control group, a baicalin treatment group and a baicalin magnesium treatment group. The rats were raised for 1 week in advance. In the second week, all rats were fed with high-fat diet. After six weeks, the rats were fasted but with water for 12 hours. For the diabetes control group, the baicalin treatment group and the baicalin magnesium treatment group, rats were administrated by tail vein injection with 45 mg/kg of streptozotocin prepared from citrate buffer solution (pH=4.5). After 3 to 7 days, the fasting blood glucose was measured. The blood glucose level greater than 13 mmol/L was a criterion for the successful diabetes rate model. The rats in the high-fat diet control group were administrated by tail vein injection with the citrate buffer solution. After the model was built, the rats were intragastrically administrated in the morning every day. The rats in the baicalin group were administrated with baicalin at a dose of 80 mg/kg; the rates in the […] were administrated with baicalin magnesium at a dose equivalent to 80 mg/kg of baicalin; and the rats in the diabetes model group and the high-fat diet control group were intragastrically administrated the same volume of solvent once every day and for successive 6 weeks. After the molding and the administration, the blood glucose was measured in the third week and the sixth week. Single-factor variance analysis was performed on data by SPSS19.0 statistical software, and P<0.05 was of statistical significance.

[5] = Pharmacokinetic experiments (no data given); format: in vivo; details: in words only
[6] = 1 h after oral 100 mg/kg baicalin or equivalent
[7] = 3 h after oral 100 mg/kg baicalin or equivalent
[8] = 5 h after oral 100 mg/kg baicalin or equivalent
[9] = 7 h after oral 100 mg/kg baicalin or equivalent
[10] = 11 h after oral 100 mg/kg baicalin or equivalent
[11] = 15 h after oral 100 mg/kg baicalin or equivalent
[12] = 0 (after the molding, start of administration)

| SMILES | Water solubility relative to the solubility of the baicalin ([1]; 37° C.) | solubility [1] | ALT (serum) [2] | AST (serum) [2] | GSH-Px (serum) [2] | MDA (serum) [2] | SOD (serum) [2] | Ear swelling degree (difference in weight left vs right ear) [3, 6] | Ear swelling degree (difference in weight left vs right ear) [3, 7] | Ear swelling degree (difference in weight left vs right ear) [3, 8] | Ear swelling degree (difference in weight left vs right ear) [3, 9] | Ear swelling degree (difference in weight left vs right ear) [3, 10] | Ear swelling degree (difference in weight left vs right ear) [3, 11] | Blood Glucose [4, 12] | Blood Glucose ([4]; 3 weeks) | Blood Glucose ([4]; 6 weeks) | Adsorption rate compared to baicalin [5] |
| --- | --- | --- | --- | --- | --- | --- | --- | --- | --- | --- | --- | --- | --- | --- | --- | --- | --- |
| O=C(O)C1O[C@@H](Oc2cc3oc(-c4ccccc4)cc(=O)c3c(O)c2O)C(O)[C@@H](O)[C@@H]1O (some centres unmarked) [Baicalin Magnesium, baicalin magnesium] | 2225 times | 129 mg/mL (≈ 289 mM) | 165.1 ± 8.7*^Δ U/L | 139.8 ± 13.7*^Δ U/L | 11.8 ± 0.5*^Δ U/L | 2.1 ± 0.3*^Δ nmol/L | 48.2 ± 2.9 U/L | 5.87 ± 2.05*^Δ mg | 4.57 ± 3.56 mg | 4.63 ± 2.78 mg | 5.87 ± 3.43 mg | 6.77 ± 3.75*^Δ mg | 7.97 ± 2.85^Δ mg | 22.32 ± 2.23 mmol/L | 19.46 ± 3.59*^Δ# mmol/L | 17.58 ± 2.6*^Δ# mmol/L | faster adsorption rate |
| O=C(O)[C@H]1O[C@@H](Oc2cc3oc(-c4ccccc4)cc(=O)c3c(O)c2O)[C@H](O)[C@@H](O)[C@@H]1O [Baicalin] |  | 0.058 mg/mL (≈ 0.13 mM) | 191.4 ± 19.4 U/L | 168.5 ± 11.9 U/L | 9.8 ± 0.9 U/L | 3.1 ± 0.4 nmol/L | 45.2 ± 2.9 U/L | 7.57 ± 3.05 mg | 4.66 ± 2.76 mg | 4.88 ± 1.99 mg | 6.77 ± 2.54 mg | 7.89 ± 2.98 mg | 9.12 ± 1.98 mg | 23.54 ± 2.5 mmol/L | 21.45 ± 2.6 mmol/L | 20.14 ± 2.6 mmol/L |  |
